According to US9458110B2, “Phenylpyrazole derivatives as potent ROCK1 and ROCK2 inhibitors” (BRISTOL-MYERS SQUIBB COMPANY, priority 2013, dated 2016):

Legend:
ROCK2 = ROCK2 (Homo sapiens (Human), UniProt O75116); test: ROCK assay (Caliper LABCHIP peptide phosphorylation), ROCK2; format: biochemical; conditions: 5 μM ATP, 1.5 μM peptide substrate;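 note: reaction stopped with EDTA, then phosphorylated and unphosphorylated peptide resolved by microfluidic electrophoresis, kinase inhibition computed at each compound concentration in dose-response series, DMSO under 2%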
ROCK1 = ROCK1 (Homo sapiens (Human), UniProt Q13464); test: ROCK assay (Caliper LABCHIP peptide phosphorylation), ROCK1; format: biochemical; conditions: 5 μM ATP, 1.5 μM peptide substrate;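 note: Read-out is separation of phosphorylated from unphosphorylated peptide, with kinase activity inhibition computed at every concentration of a dose-response series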
Chain of ROCK1 (Q13464 whole entry, species assumed): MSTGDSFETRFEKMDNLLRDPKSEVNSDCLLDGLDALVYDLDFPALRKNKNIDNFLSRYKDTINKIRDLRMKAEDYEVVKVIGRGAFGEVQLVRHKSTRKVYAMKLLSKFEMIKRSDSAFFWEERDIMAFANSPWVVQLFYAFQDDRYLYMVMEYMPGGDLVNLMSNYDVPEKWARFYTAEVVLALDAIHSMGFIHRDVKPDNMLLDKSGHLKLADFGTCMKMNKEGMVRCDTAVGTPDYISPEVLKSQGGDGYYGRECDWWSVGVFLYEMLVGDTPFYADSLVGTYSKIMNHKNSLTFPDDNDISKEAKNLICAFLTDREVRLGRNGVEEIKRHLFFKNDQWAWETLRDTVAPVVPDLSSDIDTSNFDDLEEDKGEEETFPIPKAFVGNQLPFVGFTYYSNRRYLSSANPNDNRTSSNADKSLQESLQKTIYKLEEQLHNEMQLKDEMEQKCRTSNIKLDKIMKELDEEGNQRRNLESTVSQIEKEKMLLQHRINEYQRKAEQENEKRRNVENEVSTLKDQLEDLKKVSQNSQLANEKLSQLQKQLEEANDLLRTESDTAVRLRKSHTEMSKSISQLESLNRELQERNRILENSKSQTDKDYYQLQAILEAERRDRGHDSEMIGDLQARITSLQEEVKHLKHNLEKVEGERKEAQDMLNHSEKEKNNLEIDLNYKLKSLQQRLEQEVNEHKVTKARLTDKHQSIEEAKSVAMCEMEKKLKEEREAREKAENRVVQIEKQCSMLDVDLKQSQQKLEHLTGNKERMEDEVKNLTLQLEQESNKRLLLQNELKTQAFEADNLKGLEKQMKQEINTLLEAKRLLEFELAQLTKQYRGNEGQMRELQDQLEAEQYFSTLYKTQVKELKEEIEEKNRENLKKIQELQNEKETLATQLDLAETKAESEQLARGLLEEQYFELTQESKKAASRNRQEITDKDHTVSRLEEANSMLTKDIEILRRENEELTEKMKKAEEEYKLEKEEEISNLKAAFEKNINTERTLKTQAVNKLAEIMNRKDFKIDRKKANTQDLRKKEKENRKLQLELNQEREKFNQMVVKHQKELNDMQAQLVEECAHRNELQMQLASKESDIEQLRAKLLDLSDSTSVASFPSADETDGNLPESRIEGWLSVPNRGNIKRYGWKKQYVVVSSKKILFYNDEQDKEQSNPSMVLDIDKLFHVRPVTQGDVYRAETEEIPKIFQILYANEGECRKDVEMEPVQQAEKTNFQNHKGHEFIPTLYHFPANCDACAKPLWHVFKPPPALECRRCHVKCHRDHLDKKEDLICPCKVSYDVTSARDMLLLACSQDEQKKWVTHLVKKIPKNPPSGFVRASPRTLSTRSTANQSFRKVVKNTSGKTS

Chain of ROCK2 (O75116 whole entry, species assumed): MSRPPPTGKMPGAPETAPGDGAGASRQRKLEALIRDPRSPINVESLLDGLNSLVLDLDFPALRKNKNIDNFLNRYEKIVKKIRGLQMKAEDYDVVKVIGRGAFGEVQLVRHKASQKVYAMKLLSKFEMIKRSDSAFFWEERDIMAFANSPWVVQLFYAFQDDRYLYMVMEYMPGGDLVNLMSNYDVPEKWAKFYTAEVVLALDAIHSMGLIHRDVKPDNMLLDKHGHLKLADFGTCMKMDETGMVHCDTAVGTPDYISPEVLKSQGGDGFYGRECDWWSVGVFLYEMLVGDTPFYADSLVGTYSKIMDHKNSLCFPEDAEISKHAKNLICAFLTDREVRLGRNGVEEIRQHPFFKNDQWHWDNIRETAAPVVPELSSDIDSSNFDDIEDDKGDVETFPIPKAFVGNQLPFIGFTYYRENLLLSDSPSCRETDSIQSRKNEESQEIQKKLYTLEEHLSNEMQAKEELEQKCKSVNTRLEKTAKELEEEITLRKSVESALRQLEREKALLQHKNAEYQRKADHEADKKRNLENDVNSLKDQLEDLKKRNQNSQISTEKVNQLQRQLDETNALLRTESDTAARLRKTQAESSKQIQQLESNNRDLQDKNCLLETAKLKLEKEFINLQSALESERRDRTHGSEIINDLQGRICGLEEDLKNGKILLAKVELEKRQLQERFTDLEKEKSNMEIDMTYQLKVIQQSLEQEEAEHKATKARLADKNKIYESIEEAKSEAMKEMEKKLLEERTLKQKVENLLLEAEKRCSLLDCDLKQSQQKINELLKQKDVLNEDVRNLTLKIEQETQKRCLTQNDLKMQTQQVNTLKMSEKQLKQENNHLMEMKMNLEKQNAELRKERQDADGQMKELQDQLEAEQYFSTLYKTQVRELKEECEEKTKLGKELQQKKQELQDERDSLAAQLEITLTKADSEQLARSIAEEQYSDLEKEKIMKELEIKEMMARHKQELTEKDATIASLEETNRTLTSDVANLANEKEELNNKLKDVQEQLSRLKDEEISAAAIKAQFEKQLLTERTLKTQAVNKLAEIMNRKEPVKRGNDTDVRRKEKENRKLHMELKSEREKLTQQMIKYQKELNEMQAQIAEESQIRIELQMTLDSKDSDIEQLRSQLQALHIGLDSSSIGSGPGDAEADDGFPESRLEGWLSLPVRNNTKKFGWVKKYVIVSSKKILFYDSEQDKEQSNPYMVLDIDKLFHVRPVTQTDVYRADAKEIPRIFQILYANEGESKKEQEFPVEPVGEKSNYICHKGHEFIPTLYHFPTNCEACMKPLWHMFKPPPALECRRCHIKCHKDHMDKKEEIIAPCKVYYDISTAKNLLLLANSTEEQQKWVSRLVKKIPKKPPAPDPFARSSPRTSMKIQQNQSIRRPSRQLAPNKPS

Structure (SMILES) | IC50 (ROCK2) [nM] | IC50 (ROCK1) [nM]
C[C@@H](NC(=O)c1ccc(-c2cn[nH]c2)c(N(C)C)c1)c1ccc(F)cc1 [Example 296, (R)-3-(Dimethylamino)-N-(1-(4-fluorophenyl)ethyl)-4-(1H-pyrazol-4-yl)benzamide] | 54.6 | 145
CN(C)CCOc1cc(C(=O)NCc2ccccc2Cl)ccc1-c1cn[nH]c1 [Example 63, N-(2-Chlorobenzyl)-3-(2-(dimethylamino)ethoxy)-4-(1H-pyrazol-4-yl)benzamide] | 844 | 1580
COc1cc(C(=O)NCc2cc(F)cc(F)c2)ccc1-c1cn[nH]c1 [Example 52, N-(3,5-difluorobenzyl)-3-methoxy-4-(1H-pyrazol-4-yl)benzamide] | 63.4 | 125
CC(NC(=O)c1ccc(-c2cn[nH]c2)c(C=O)c1)c1ccccc1F (centres unmarked) [Example 275, N-[1-(2-fluorophenyl)ethyl]-3-formyl-4-(1H-pyrazol-4-yl)benzamide] | 1420 | 983
COc1cc(C(=O)NCc2ccc(C#N)cc2)ccc1-c1cn[nH]c1 [Example 143, N-[(4-cyanophenyl)methyl]-3-methoxy-4-(1H-pyrazol-4-yl)benzamide] | 82.5 | 365
CC(O)c1cc(C(=O)N[C@H](C)c2ccccc2)ccc1-c1cn[nH]c1 (stereo partly drawn) [Example 281, 3-(1-hydroxyethyl)-N-[(1R)-1-phenylethyl]-4-(1H-pyrazol-4-yl)benzamide] | 9.73 | 26.8
CCOc1cc(C(=O)N[C@H](CO)c2ccccc2)ccc1-c1cn[nH]c1 [Example 192, 3-ethoxy-N-[(1S)-2-hydroxy-1-phenylethyl]-4-(1H-pyrazol-4-yl)benzamide] | 11.4 | 50.8
COc1cc(C(=O)NC(CN2CCN(C)CC2)c2ccccc2)ccc1-c1cn[nH]c1 (centres unmarked) [Example 13, 3-methoxy-N-(2-(4-methylpiperazin-1-yl)-1-phenylethyl)-4-(1H-pyrazol-4-yl)benzamide] | 77.1 | 147
Cc1cc(C(=O)NCc2cccc(C(=O)NCC3CC3)c2)ccc1-c1cn[nH]c1 [Example 243, N-({3-[(cyclopropyl-methyl)carbamoyl]phenyl}methyl)-3-methyl-4-(1H-pyrazol-4-yl)benzamide] | 0.5 | 3.38
COc1cccc([C@@H](C)NC(=O)c2ccc(-c3cn[nH]c3)cc2Cl)c1 [Example 109, 2-chloro-N-[(1R)-1-(3-methoxyphenyl)ethyl]-4-(1H-pyrazol-4-yl)benzamide] | 144 | 529
COc1cccc(C(C)NC(=O)c2ccc(-c3cn[nH]c3)c(OC)c2)n1 (centres unmarked) [Example 135, 3-methoxy-N-[1-(6-methoxypyridin-2-yl)ethyl]-4-(1H-pyrazol-4-yl)benzamide] | 16.9 | 73.4
CC(O)c1cc(C(=O)N[C@H](C)c2c(F)cccc2F)ccc1-c1cn[nH]c1 (stereo partly drawn) [Example 293, N-[(1R)-1-(2,6-difluorophenyl)ethyl]-3-(1-hydroxyethyl)-4-(1H-pyrazol-4-yl)benzamide] | 16.2 | 98.2
COc1cc(-c2cn[nH]c2)ccc1C(=O)NCc1ccc(F)cc1Cl [Example 210, N-[(2-chloro-4-fluorophenyl)methyl]-2-methoxy-4-(1H-pyrazol-4-yl)benzamide] | 1.75 | 3.26
COc1cc(C(=O)N[C@@H](CO)Cc2ccccc2)ccc1-c1cn[nH]c1 [Example 133, N-[(2R)-1-hydroxy-3-phenylpropan-2-yl]-3-methoxy-4-(1H-pyrazol-4-yl)benzamide] | 34 | 77.9
COc1cccc(CNC(=O)c2ccc(-c3cn[nH]c3)c(F)c2)c1 [Example 59, 3-Fluoro-N-(3-methoxybenzyl)-4-(1H-pyrazol-4-yl)benzamide] | 18.9 | 33.3

Further compounds by falling IC50 (ROCK2), results first:

IC50 (ROCK2) [nM] | IC50 (ROCK1) [nM] | Structure (SMILES)
1760 | 1950 | CC(O)c1cc(C(=O)NCc2c(F)cccc2Cl)ccc1-c1cn[nH]c1 (centres unmarked) [Example 290, N-[(2-chloro-6-fluorophenyl)methyl]-3-(1-hydroxyethyl)-4-(1H-pyrazol-4-yl)benzamide]
1510 | 1140 | CC(O)c1cc(C(=O)N[C@H](C)c2c(F)cccc2F)ccc1-c1cn[nH]c1 (stereo partly drawn) [Example 292, N-[(1R)-1-(2,6-difluorophenyl)ethyl]-3-(1-hydroxyethyl)-4-(1H-pyrazol-4-yl)benzamide]
563 | 1700 | COC(=O)c1cc(C(=O)N[C@H](C)c2ccc(F)cc2)ccc1-c1cn[nH]c1 [Example 295, (R)-Methyl 5-((1-(4-fluorophenyl)ethyl)carbamoyl)-2-(1H-pyrazol-4-yl)benzoate]
74.6 | 205 | CCOc1cc(C(=O)N[C@H](C)c2ccc(F)cc2)ccc1-c1cn[nH]c1 [Example 191, 3-ethoxy-N-[(1R)-1-(4-fluorophenyl)ethyl]-4-(1H-pyrazol-4-yl)benzamide]
60.4 | 184 | COc1cc(C(=O)NCc2ccccn2)ccc1-c1cn[nH]c1 [Example 15, 3-methoxy-4-(1H-pyrazol-4-yl)-N-(pyridin-2-ylmethyl) benzamide]
43.5 | 63.8 | COc1cccc([C@@H](C)NC(=O)c2ccc(-c3c[nH]nc3CO)cc2OC)c1 [Example 306, (R)-4-(3-(Hydroxymethyl)-1H-pyrazol-4-yl)-2-methoxy-N-(1-(3-methoxyphenyl)ethyl)benzamide]
20.9 | 20.4 | COc1cc(C(=O)NCc2ccccc2C(F)(F)F)ccc1-c1cn[nH]c1 [Example 26, 3-methoxy-4-(1H-pyrazol-4-yl)-N-(2-(trifluoromethyl)benzyl)benzamide]
15.2 | 174 | COc1cc(-c2cn[nH]c2)ccc1C(=O)NC(CCN(C)C)c1ccccc1 (centres unmarked) [Example 208, N-[3-(dimethylamino)-1-phenylpropyl]-2-methoxy-4-(1H-pyrazol-4-yl)benzamide]
5.7 | 12.5 | COc1cc(C(=O)N[C@H](CO)Cc2ccccc2)ccc1-c1cn[nH]c1 [Example 128, N-[(2S)-1-hydroxy-3-phenylpropan-2-yl]-3-methoxy-4-(1H-pyrazol-4-yl)benzamide]
2.69 | 9.03 | COc1cc(C(=O)N[C@H](C)c2ccc(F)cc2)ccc1-c1cn[nH]c1 [Example 73, (R)-N-(1-(4-fluorophenyl)ethyl)-3-methoxy-4-(1H-pyrazol-4-yl)benzamide]
2.41 | 26 | COc1cc(CNC(=O)c2ccc(-c3cn[nH]c3)c(OC)c2)ccc1F [Example 96, N-[(4-fluoro-3-methoxyphenyl)methyl]-3-methoxy-4-(1H-pyrazol-4-yl)benzamide]
0.83 | 3.36 | COc1ccc(F)c(C(C)NC(=O)c2ccc(-c3cn[nH]c3)c(OC)c2)c1 (centres unmarked) [Example 140, N-[1-(2-fluoro-5-methoxyphenyl)ethyl]-3-methoxy-4-(1H-pyrazol-4-yl)benzamide]
0.32 | 2.44 | COc1cc(C(=O)NCc2cccc(C(=O)NC3CC3)c2)ccc1-c1cn[nH]c1 [Example 238, N-{[3-(cyclopropyl-carbamoyl)phenyl]methyl}-3-methoxy-4-(1H-pyrazol-4-yl)benzamide]
